Data reported in patent publication US8309734B2 (Hoffmann-La Roche Inc., priority 2008, dated 2012).

What follows are compounds tested against T1, human GPBAR1 receptor (Homo sapiens, UniProt Q8TDU6) (assay: functional cAMP assay in CHO-dhfr(minus) cells expressing human GPBAR1 receptors). Conditions: cAMP increase (TR-FRET) in CHO-dhfr(minus) cells expressing human GPBAR1; compounds incubated 30 min at 30° C.
T1 construct: expressed in transfected cells
T1 sequence (Q8TDU6 1-330): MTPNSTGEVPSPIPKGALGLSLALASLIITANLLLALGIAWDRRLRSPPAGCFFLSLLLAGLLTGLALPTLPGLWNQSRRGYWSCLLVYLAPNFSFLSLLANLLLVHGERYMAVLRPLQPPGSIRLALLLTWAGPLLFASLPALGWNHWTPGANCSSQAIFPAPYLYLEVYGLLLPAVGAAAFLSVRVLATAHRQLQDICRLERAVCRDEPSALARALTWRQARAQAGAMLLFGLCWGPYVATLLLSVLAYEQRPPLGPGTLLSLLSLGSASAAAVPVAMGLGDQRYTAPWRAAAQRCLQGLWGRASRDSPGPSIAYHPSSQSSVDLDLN
Assay type: cell-based
Method: The final clone was verified by DNA sequence analysis. The plasmid was transfected into CHO cells deficient in dihydrofolate reductase activity (CHO-dhfr-) using Lipofectamine plus (Invitrogen). Clones were isolated in limited dilution conditions and identified by activities in the cAMP assay using lithocholic acid as agonist.
The growth medium was exchanged with Krebs Ringer Bicarbonate buffer with 1 mM IBMX and incubated at 30° C. for 30 mM. Compounds were added to a final assay volume of 100 μl and incubated for 30 min at 30° C. […] The time-resolved energy transfer is measured by a TRF reader (Evotec Technologies GmbH, Hamburg Germany), equipped with a ND:YAG laser as excitation source. The plate is measured twice with the excitation at 355 nm and at the emission with a delay of 100 ns and a gate of 100 ns, total exposure time 10s at 730 (bandwith 30 nm) or 645 nm (bandwith 75 nm), respectively.
EC50 values were determined using Activity Base analysis (ID Business Solution, Limited). […] Specificity for GPBAR1 was tested in non-transfected CHO cells in the same assay as above.

Row | SMILES | EC50 [nM]
1 | O=C(c1cccnc1Oc1cc(Cl)ccc1Cl)N1CCN(c2ccccc2)c2ccccc21 [Example 74, [2-(2,5-Dichloro-phenoxy)-pyridin-3-yl]-(4-phenyl-3,4-dihydro-2H-quinoxalin-1-yl)-methanone] | 1530
2 | Cc1ccc(Oc2ncccc2C(=O)N2CCCc3ccccc32)cc1Cl [Example 9, [2-(3-Chloro-4-methyl-phenoxy)-pyridin-3-yl]-(3,4-dihydro-2H-quinolin-1-yl)-methanone] | 1010
3 | O=C(c1cccnc1Oc1cc(Cl)c(Cl)cc1Cl)N1CCCc2ccccc21 [Example 14, (3,4-Dihydro-2H-quinolin-1-yl)-[2-(2,4,5-trichloro-phenoxy)-pyridin-3-yl]-methanone] | 236
4 | CN(CC(=O)O)C(=O)CCc1cc(Cl)c(Oc2ncccc2C(=O)N2CCN(C3CC3)c3ccccc32)cc1Cl [Example 178, [(b 3-{2,5-Dichloro-4-[3-(4-cyclopropyl-3,4-dihydro-2H-quinoxaline-1-carbonyl)-pyridin-2-yloxy]-phenyl}-propionyl)-methyl-amino]-acetic acid] | 96
5 | O=C(c1ccncc1Oc1ccc(F)c(Cl)c1)N1CCCc2cc(F)cc(F)c21 [Example 105, [3-(3-Chloro-4-fluoro-phenoxy)-pyridin-4-yl]-(6,8-difluoro-3,4-dihydro-2H-quinolin-1-yl)-methanone] | 138
6 | COc1ccncc1N(C)C(=O)c1cccnc1Oc1cc(Cl)ccc1Cl [Example 75, 2-(2,5-Dichloro-phenoxy)-N-(4-methoxy-pyridin-3-yl)-N-methyl-nicotinamide] | 1580
7 | Cc1ccccc1N(C)C(=O)c1ccncc1Oc1ccc(Cl)cc1Cl [Example 99, 3-(2,4-Dichloro-phenoxy)-N-methyl-N-o-tolyl-isonicotinamide] | 388
8 | O=C(O)CN1CCN(C(=O)c2cccnc2Oc2cc(Cl)ccc2Cl)c2ccccc21 [Example 142, {4-[2-(2,5-Dichloro-phenoxy)-pyridine-3-carbonyl]-3,4-dihydro-2H-quinoxalin-1-yl}-acetic acid] | 307
9 | CN(C(=O)c1ccncc1Oc1ccc(Cl)cc1Cl)c1ccccc1Cl [Example 100, N-(2-Chloro-phenyl)-3-(2,4-dichloro-phenoxy)-N-methyl-isonicotinamide] | 1050
10 | O=C(c1cccnc1Oc1cccc(C(F)(F)F)c1)N1CCCc2ccccc21 [Example 1, (3,4-Dihydro-2H-quinolin-1-yl)-[2-(3-trifluoromethyl-phenoxy)-pyridin-3-yl]-methanone] | 396
11 | O=C(c1cccnc1Oc1ccccc1Cl)N1CCCc2ccccc21 [Example 2, [2-(2-Chloro-phenoxy)-pyridin-3-yl]-(3,4-dihydro-2H-quinolin-1-yl)-methanone] | 989
12 | CC(CN1CCN(C(=O)c2cc(F)cnc2Oc2cc(Cl)ccc2Cl)c2ccccc21)C(=O)O (centres unmarked) [Example 157, 3-{4-[2-(2,5-Dichloro-phenoxy)-5-fluoro-pyridine-3-carbonyl]-3,4-dihydro-2H-quinoxalin-1-yl}-2-methyl-propionic acid] | 1680
13 | COC(=O)c1cc(Cl)c(Oc2ncccc2C(=O)N2CCN(C3CC3)c3ccccc32)cc1Cl [Example 182, 2,5-Dichloro-4-[3-(4-cyclopropyl-3,4-dihydro-2H-quinoxaline-1-carbonyl)-pyridin-2-yloxy]-benzoic acid methyl ester] | 181
14 | O=C(c1cccnc1Oc1cc(Cl)c(C#CCO)cc1Cl)N1CCN(C2CC2)c2ccccc21 [Example 164, (4-Cyclopropyl-3,4-dihydro-2H-quinoxalin-1-yl)-{2-[2,5-dichloro-4-(3-hydroxy-prop-1-ynyl)-phenoxy]-pyridin-3-yl}-methanone] | 36

Second part, the compound after the results:

Row | EC50 [nM] | SMILES
15 | 1960 | O=C(c1cccnc1Oc1ccc(Cl)cc1Cl)N1CCCc2ccccc21 [Example 76, [2-(2,4-Dichloro-phenoxy)-pyridin-3-yl]-(3,4-dihydro-2H-quinolin-1-yl)-methanone]
16 | 918 | O=C1CCN(C(=O)c2cccnc2Oc2cc(Cl)ccc2Cl)c2ccccc21 [Example 128, 1-[2-(2,5-Dichloro-phenoxy)-pyridine-3-carbonyl]-2,3-dihydro-1H-quinolin-4-one]
17 | 950 | Cc1cccc2c1N(C(=O)c1cc(F)cnc1Oc1ccc(F)c(Cl)c1)CCC2 [Example 88, [2-(3-Chloro-4-fluoro-phenoxy)-5-fluoro-pyridin-3-yl]-(8-methyl-3,4-dihydro-2H-quinolin-1-yl)-methanone]
18 | 1400 | Cc1ccc2c(c1)CCCN2C(=O)c1cccnc1Oc1cccc(C(F)(F)F)c1 [Example 4, (6-Methyl-3,4-dihydro-2H-quinolin-1-yl)-[2-(3-trifluoromethyl-phenoxy)-pyridin-3-yl]-methanone]
19 | 153 | Cc1ccc(Cl)cc1Oc1ncccc1C(=O)N1CCCc2ccccc21 [Example 11, [2-(5-Chloro-2-methyl-phenoxy)-pyridin-3-yl]-(3,4-dihydro-2H-quinolin-1-yl)-methanone]
20 | 1980 | O=C(c1cc(Cl)cnc1Oc1cc(F)ccc1F)N1CCCc2ccccc21 [Example 28, [5-Chloro-2-(2,5-difluoro-phenoxy)-pyridin-3-yl]-(3,4-dihydro-2H-quinolin-1-yl)-methanone]
21 | 340 | O=C(c1cccnc1Oc1cc(Cl)c(Br)cc1Cl)N1CCCc2ccccc21 [Example 165, [2-(4-Bromo-2,5-dichloro-phenoxy)-pyridin-3-yl]-(3,4-dihydro-2H-quinolin-1-yl)-methanone]
22 | 145 | O=C(c1cc(Cl)cnc1Oc1cc(Cl)ccc1Cl)N1CCCc2ccccc21 [Example 27, [5-Chloro-2-(2,5-dichloro-phenoxy)-pyridin-3-yl]-(3,4-dihydro-2H-quinolin-1-yl)-methanone]
23 | 561 | COc1cccc2c1N(C(=O)c1cccnc1Oc1cc(Cl)ccc1Cl)CCC2 [Example 70, [2-(2,5-Dichloro-phenoxy)-pyridin-3-yl]-(8-methoxy-3,4-dihydro-2H-quinolin-1-yl)-methanone]
24 | 138 | Cc1ccc2c(c1)CCCN2C(=O)c1cccnc1Oc1cc(Cl)ccc1Cl [Example 31, [2-(2,5-Dichloro-phenoxy)-pyridin-3-yl]-(6-methyl-3,4-dihydro-2H-quinolin-1-yl)-methanone]
25 | 7 | O=C(c1ccncc1Oc1cc(Cl)ccc1Cl)N1CCCc2ccccc21 [Example 89, [3-(2,5-Dichloro-phenoxy)-pyridin-4-yl]-(3,4-dihydro-2H-quinolin-1-yl)-methanone]
26 | 1160 | Cc1ccc2c(c1)CCCN2C(=O)c1cc(F)ccc1Oc1cc(Cl)ccc1Cl [Example 116, [2-(2,5-Dichloro-phenoxy)-5-fluoro-phenyl]-(6-methyl-3,4-dihydro-2H-quinolin-1-yl)-methanone]
27 | 78 | O=C(c1cc(F)cnc1Oc1cc(Cl)ccc1Cl)N1CCOc2ccccc21 [Example 81, [2-(2,5-Dichloro-phenoxy)-5-fluoro-pyridin-3-yl]-(2,3-dihydro-benzo[1,4]oxazin-4-yl)-methanone]
28 | 328 | O=C(c1ccncc1Oc1ccc(Cl)cc1Cl)N1CCCc2ccc(F)cc21 [Example 96, [3-(2,4-Dichloro-phenoxy)-pyridin-4-yl]-(7-fluoro-3,4-dihydro-2H-quinolin-1-yl)-methanone]
29 | 44 | O=C(c1cccnc1Oc1cc(Cl)ccc1Cl)N1CCCc2cc(F)cc(F)c21 [Example 44, [2-(2,5-Dichloro-phenoxy)-pyridin-3-yl]-(6,8-difluoro-3,4-dihydro-2H-quinolin-1-yl)-methanone]
